Article PMC3156385 (Chemical research in toxicology, 2011)

Tests used:
rat liver P450 1A2 = biological target: T1, rat liver P450 1A2 (Rattus norvegicus, UniProt P04799); type: binding
T1 sequence (P04799 1-513): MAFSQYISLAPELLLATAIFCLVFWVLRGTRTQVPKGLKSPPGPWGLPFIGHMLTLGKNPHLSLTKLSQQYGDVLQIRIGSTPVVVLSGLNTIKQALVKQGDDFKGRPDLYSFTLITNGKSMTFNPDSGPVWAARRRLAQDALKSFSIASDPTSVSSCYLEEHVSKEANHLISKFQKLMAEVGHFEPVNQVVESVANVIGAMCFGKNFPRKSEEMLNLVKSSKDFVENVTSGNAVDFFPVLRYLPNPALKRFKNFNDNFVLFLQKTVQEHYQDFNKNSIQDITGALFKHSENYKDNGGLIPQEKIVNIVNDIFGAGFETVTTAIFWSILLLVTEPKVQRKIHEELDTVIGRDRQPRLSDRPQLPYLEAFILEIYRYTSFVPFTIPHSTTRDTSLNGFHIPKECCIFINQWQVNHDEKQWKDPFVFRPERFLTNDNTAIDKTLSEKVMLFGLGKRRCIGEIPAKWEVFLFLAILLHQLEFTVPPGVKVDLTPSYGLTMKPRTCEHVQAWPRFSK

rabbit liver P450 1A2 = biological target: T2, rabbit liver P450 1A2 (Oryctolagus cuniculus, UniProt P00187); type: binding
T2 sequence (P00187 1-516): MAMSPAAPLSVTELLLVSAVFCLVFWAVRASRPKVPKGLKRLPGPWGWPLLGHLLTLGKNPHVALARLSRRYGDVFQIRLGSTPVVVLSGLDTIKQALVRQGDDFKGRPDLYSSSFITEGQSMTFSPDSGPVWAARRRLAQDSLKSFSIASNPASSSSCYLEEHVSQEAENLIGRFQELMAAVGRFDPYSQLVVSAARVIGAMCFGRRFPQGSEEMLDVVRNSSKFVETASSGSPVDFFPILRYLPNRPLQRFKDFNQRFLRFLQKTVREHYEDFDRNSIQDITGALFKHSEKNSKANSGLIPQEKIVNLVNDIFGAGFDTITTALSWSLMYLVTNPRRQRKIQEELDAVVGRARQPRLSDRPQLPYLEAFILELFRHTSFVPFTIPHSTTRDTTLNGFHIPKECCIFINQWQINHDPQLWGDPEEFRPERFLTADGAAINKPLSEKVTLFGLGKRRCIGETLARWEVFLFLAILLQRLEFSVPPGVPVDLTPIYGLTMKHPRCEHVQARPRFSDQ

## N#C[Se]Cc1ccccc1 [BSC, benzyl selenocyanate]
Rat liver P450 1A2
  Kd: 16 ± 2.4 µM
Rabbit liver P450 1A2
  Kd: 90 ± 29 µM
